Like-named read-outs stand apart in the source and are kept apart here.
Columns and labels:
BV-2 cells = test: MTT cell viability assay; format: cell-based, murine; details: 5 μM compound, % of LPS, mean ± SD
Description: (§1) 3-(4,5-dimethylthiazol-2-yl)-2,5-diphenyl-tetrazolium bromide (MTT) assay was performed to evaluate the cytotoxicity of the samples to the microglia. BV2 cells at the density of 4 × 10^4 cells /well were seeded in the 96 well plate and incubated for 24 h. Seeded cells were pre-treated with different concentration of the samples, and LPS (100 ng/ml) activation was performed after 30 min of compound treatment. Treated plate were incubated for 24 h in the incubator and nitric oxide assay and cell viability assay was performed. Treated cell’s conditioned medium was used to evaluate the NO assay, and the attached cells were used to evaluate the cell viability assay. 50 µL of conditioned medium (CM) from treated cells were transferred to a new 96 well plate for NO assay. This CM was mixed with the equal volume of the mixture of Gries reagent ((1% sulfanilamide and 0.1% N-1-napthylethylenediamine dihydrochloride). NaNO2 was used as standard and the colorimetric change were evidenced by measuring its OD at 540 nm in a microplate reader. The cells in the plate were incubated for 1 h with MTT solution making it the final concentration of […]. Blue stained cells were incubated with 200 ul of DMSO and the solution get changed to purple/formazan color and it was observed by measuring the absorbance at 570 nm in a microplate reader.NG-mono-methyl-L-arginine (L-NMMA), a well-known nitric oxide synthase (NOS) inhibitor, was used as a positive control.

ZIPK/DAPK3 = molecular target: T1, ZIPK/DAPK3 (Homo sapiens, UniProt O43293); details: cited from earlier work
T1 construct: purchased Reaction Biology Corp

GSK3b = molecular target: T2, GSK3b (Homo sapiens, UniProt P49841); details: cited from earlier work
T2 construct: purchased Reaction Biology Corp

TRKC (L686M) = molecular target: T3, TRKC (L686M) (Homo sapiens, UniProt Q16288, L686M); test: Kinase panel assay (radiolabelled); format: biochemical; details: 30 μM compound, ATP 10 μM, duplicates Data 1/Data 2
T3 construct: purchased Reaction Biology Corp

JNK2 = molecular target: T4, JNK2 (Homo sapiens, UniProt P45984); test: Kinase panel assay (radiolabelled); format: biochemical; details: ATP 10 μM
T4 construct: purchased Reaction Biology Corp

AMPK(A1/B1/G2) = molecular target: T5, AMPK(A1/B1/G2) (Homo sapiens, UniProt Q13131+Q9UGJ0+Q9Y478); test: Kinase panel assay (radiolabelled); format: biochemical; details: 30 μM compound, ATP 10 μM; duplicates Data 1/Data 2; read-out: % Enzyme Activity (relative to DMSO controls)
T5 construct: purchased Reaction Biology Corp

COX-2 = test: Western blot of COX-2 in LPS-induced BV-2 cells; format: cell-based, murine; details: 0.01 to 1 uM
Description: Western blot analysis was performed to see the protein expression of the iNOS and COX-2 in the BV2 cells. BV2 cells were seeded in a 6 well plate at the density of 6 × 10^5 cells/well overnight and cells were treated as mentioned earlier in the cell treatment section and this time treatment was performed for 6 h only. After 6 h, cells were harvested and lysed with lysis buffer containing (RIPA, protease inhibitor & phosphatase inhibitor), protein estimation was performed using biorad assay and the 30 µg of total protein was separated by 8% SDS-PAGE gel electrophoresis, transferred to nitrocellulose membranes, and incubated with primary antibodies against tubulin, iNOS, COX-2, and α-tubulin. […] membranes were incubated with horseradish peroxidase-conjugated secondary antibodies, and protein bands were visualized using ECL Western Blotting Detection Reagents (Amersham Pharmacia Biotech). Quantitative analysis of the protein bands was quantified using Image Master 2D Elite software (version 3.1, Amersham Pharmacia Biotech).

MST3/STK24 = molecular target: T6, MST3/STK24 (Homo sapiens, UniProt Q9Y6E0); test: Kinase panel assay (radiolabelled); format: biochemical; details: ATP 10 μM
T6 construct: purchased Reaction Biology Corp

MTT cell viability assay = format: cell-based, murine; details: mouse, BV-2 microglia cells (LPS-activated), mean ± SD
Description: as §1

AMPK(A1/B2/G1) [1] = molecular target: T7, AMPK(A1/B2/G1) (Homo sapiens, UniProt O43741+P54619+Q13131); test: Kinase panel assay (radiolabelled); format: biochemical; details: 30 μM compound, ATP 10 μM; duplicates Data 1/Data 2; read-out: % Enzyme Activity (relative to DMSO controls)
T7 construct: purchased Reaction Biology Corp

AMPK(A1/B2/G1) [2] = molecular target: T8, AMPK(A1/B2/G1) (Homo sapiens, UniProt Q13131); test: Kinase panel assay (radiolabelled); format: biochemical; details: 30 μM compound, ATP 10 μM; duplicates Data 1/Data 2
T8 construct: purchased Reaction Biology Corp

RIPK5 = molecular target: T9, RIPK5 (Homo sapiens, UniProt Q6XUX3); test: Kinase panel assay (radiolabelled); format: biochemical; details: ATP 10 μM
T9 construct: purchased Reaction Biology Corp
T9 sequence (Q6XUX3 1-929): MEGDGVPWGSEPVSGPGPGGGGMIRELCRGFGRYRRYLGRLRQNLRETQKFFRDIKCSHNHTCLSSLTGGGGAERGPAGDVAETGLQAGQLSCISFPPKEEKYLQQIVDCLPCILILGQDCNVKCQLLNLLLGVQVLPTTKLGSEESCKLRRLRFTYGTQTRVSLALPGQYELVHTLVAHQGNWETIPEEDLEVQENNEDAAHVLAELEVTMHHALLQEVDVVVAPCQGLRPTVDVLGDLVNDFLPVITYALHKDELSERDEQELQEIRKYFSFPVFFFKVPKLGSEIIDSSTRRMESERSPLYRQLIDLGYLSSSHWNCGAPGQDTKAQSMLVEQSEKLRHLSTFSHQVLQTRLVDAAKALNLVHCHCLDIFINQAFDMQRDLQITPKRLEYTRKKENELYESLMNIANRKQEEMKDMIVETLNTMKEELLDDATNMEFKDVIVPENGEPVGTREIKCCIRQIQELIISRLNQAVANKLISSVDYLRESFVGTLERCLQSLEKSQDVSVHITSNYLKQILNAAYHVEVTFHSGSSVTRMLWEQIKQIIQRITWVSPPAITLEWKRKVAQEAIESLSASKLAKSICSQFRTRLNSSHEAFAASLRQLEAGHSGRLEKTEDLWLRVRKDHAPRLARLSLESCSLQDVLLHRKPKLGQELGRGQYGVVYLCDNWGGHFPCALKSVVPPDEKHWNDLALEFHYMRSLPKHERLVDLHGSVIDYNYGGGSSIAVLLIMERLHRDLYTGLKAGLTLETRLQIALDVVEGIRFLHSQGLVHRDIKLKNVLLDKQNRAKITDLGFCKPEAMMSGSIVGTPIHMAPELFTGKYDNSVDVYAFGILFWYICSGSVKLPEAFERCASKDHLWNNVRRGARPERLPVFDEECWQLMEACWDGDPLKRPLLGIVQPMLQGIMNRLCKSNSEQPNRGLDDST

TRKA (G595R) = molecular target: T10, TRKA (G595R) (Homo sapiens, UniProt P04629, G595R); test: Kinase panel assay (radiolabelled); format: biochemical; details: 30 μM compound, ATP 10 μM, duplicates Data 1/Data 2
T10 construct: purchased Reaction Biology Corp

ROCK1 = molecular target: T11, ROCK1 (Homo sapiens, UniProt Q13464); test: Kinase panel assay (radiolabelled); format: biochemical; details: ATP 10 μM
T11 construct: purchased Reaction Biology Corp

[3] = read-out: % Enzyme Activity (relative to DMSO controls)
[4] = 30 μM compound, duplicates Data 1/Data 2
[5] = 30 μM compound, duplicates Data 1/Data 2, read-out: % Enzyme Activity (relative to DMSO controls)
[6] = 30 μM, average ± SD, read-out: % Residual Activity at 30 μM

T4 sequence (P45984 whole entry): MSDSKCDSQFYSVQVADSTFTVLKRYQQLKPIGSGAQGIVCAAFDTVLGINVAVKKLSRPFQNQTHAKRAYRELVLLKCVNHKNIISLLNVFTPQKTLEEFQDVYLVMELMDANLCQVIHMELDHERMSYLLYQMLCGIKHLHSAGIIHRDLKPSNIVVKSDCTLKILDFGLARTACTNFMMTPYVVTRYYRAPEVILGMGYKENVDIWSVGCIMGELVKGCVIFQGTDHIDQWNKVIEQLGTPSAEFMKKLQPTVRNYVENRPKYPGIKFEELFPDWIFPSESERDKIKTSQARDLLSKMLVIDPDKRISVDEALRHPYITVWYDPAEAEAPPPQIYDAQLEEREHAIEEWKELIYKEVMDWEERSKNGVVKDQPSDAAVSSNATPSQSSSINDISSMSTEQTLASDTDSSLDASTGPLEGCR
T6 sequence (Q9Y6E0 whole entry): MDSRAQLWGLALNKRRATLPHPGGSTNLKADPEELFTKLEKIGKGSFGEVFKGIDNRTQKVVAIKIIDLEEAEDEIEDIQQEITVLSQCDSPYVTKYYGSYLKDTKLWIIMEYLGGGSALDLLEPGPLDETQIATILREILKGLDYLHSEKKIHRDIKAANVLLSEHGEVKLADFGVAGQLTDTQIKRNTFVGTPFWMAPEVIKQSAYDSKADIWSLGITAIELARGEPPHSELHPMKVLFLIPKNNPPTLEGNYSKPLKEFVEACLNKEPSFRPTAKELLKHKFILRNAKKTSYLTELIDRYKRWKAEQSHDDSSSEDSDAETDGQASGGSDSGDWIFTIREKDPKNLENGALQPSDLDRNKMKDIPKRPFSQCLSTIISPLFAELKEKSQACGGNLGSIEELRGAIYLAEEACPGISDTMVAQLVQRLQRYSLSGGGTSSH
T11 sequence (Q13464 whole entry): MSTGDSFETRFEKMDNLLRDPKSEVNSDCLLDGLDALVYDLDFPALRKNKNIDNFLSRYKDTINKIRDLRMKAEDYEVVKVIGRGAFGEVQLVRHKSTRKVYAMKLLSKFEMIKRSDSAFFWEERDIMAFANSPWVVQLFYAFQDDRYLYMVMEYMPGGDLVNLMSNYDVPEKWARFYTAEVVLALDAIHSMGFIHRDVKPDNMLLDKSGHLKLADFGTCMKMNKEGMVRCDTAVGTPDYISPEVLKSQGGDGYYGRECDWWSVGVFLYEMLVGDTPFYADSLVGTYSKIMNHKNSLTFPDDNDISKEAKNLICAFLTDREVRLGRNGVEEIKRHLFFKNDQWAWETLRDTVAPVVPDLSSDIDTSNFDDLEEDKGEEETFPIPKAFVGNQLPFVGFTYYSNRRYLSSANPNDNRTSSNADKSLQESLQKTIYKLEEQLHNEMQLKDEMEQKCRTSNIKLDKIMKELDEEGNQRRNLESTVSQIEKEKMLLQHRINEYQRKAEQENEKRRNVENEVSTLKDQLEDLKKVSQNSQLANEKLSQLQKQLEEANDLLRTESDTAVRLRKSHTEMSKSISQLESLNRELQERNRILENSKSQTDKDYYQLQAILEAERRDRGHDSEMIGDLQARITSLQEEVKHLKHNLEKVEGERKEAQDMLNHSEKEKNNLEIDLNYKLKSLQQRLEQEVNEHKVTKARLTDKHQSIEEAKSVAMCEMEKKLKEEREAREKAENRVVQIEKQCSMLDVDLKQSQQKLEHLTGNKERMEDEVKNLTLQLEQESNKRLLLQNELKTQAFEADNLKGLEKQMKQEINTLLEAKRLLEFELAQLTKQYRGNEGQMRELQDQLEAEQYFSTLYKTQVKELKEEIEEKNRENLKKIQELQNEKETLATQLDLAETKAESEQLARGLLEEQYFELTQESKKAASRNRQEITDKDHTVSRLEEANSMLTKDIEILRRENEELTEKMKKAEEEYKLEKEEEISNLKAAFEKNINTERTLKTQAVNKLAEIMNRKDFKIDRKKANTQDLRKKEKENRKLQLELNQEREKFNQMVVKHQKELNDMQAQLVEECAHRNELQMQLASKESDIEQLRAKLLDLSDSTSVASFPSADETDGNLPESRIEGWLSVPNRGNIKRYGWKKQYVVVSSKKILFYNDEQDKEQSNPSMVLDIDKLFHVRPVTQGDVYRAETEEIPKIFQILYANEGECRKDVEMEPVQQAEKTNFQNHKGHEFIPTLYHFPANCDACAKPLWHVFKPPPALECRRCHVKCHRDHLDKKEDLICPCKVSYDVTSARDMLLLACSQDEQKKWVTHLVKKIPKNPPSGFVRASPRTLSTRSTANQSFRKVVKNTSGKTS
T10 sequence (P04629 33-796 G595R): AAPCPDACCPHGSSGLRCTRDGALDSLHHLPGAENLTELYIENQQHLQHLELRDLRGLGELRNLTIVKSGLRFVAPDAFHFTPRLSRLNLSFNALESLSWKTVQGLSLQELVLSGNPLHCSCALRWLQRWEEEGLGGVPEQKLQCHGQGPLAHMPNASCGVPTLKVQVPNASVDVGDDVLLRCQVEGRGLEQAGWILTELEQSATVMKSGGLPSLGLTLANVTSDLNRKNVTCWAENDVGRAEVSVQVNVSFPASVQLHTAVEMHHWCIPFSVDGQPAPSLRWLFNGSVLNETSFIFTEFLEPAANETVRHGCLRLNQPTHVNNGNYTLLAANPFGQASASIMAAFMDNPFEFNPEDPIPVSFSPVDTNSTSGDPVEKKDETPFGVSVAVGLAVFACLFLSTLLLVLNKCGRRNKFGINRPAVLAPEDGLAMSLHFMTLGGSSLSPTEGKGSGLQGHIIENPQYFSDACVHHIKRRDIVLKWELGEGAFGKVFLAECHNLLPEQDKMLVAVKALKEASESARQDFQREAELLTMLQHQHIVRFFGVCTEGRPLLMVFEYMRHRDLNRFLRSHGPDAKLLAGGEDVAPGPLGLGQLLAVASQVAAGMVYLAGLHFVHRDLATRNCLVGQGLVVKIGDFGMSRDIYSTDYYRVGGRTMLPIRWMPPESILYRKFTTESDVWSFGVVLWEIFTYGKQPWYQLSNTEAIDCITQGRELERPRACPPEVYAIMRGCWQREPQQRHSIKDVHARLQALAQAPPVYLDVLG
T2 sequence (P49841 whole entry): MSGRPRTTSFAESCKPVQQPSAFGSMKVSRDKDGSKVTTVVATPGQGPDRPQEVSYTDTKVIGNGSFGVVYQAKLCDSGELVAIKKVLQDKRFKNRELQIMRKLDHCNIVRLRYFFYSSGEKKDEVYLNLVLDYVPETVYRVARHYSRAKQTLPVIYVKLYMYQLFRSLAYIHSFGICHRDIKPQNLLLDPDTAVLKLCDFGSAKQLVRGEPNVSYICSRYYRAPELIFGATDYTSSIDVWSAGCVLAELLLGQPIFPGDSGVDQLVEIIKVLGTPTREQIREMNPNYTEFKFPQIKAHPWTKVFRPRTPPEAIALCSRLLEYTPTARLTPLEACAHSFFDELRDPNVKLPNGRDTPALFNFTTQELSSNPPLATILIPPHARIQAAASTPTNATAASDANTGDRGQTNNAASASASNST
T3 sequence (Q16288 32-839 L686M): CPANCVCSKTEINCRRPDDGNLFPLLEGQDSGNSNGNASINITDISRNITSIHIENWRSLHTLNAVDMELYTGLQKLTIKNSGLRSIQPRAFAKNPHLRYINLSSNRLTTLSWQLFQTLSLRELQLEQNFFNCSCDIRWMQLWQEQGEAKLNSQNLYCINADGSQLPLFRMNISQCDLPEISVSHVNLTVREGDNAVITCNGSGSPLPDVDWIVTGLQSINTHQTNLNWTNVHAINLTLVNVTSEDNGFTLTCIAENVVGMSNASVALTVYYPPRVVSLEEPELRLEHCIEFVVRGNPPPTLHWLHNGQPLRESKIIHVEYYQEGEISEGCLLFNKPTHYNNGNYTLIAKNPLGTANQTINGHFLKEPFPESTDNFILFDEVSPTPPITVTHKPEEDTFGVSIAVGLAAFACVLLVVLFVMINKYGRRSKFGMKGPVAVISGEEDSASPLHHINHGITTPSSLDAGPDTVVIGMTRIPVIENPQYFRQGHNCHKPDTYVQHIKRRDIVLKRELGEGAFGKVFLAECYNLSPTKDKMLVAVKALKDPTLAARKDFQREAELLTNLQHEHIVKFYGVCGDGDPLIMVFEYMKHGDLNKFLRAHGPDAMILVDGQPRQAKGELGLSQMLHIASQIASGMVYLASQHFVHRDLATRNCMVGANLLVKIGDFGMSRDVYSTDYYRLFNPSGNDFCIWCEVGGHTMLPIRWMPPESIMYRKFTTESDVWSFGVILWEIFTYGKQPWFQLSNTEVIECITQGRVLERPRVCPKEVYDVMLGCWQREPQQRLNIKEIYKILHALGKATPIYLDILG
T1 sequence (O43293 whole entry): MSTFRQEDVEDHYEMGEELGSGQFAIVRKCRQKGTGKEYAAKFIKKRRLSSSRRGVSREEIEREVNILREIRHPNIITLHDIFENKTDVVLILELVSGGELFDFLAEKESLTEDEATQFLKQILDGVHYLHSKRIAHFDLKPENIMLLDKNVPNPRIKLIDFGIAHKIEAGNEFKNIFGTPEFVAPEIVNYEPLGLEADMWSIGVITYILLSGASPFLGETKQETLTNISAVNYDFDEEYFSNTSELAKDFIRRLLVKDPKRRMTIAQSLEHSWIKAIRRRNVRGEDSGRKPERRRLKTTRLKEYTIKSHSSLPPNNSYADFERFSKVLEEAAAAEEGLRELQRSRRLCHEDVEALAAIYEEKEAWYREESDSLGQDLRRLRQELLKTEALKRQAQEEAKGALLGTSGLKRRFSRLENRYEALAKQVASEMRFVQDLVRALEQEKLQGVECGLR

In the case of `O=C1C=CC2(C=C1)OCC(Cc1cc(C(F)(F)F)cc(C(F)(F)F)c1)C(=O)N2c1ccccc1` (racemic) [1c], the “Cell Viability (%)” value (BV-2 cells) is given as 92 ± 13%, the “% Residual Activity at 30 μM” value (ZIPK/DAPK3) is given as 101.8 ± 0.8% and the “inhibitory activity on GSK-3β” value (GSK3b; 30 μM) is given as “did not show any inhibitory activity”. For the same compound, the “% Residual Activity at 30 μM” value (GSK3b) was 107.5 ± 1.9%.
In the case of `O=C1C=CC2(C=C1)OCC(Cc1cn(-c3cccc(Cl)c3)nn1)C(=O)N2c1ccccc1` (centres unmarked) [2d, 3-((1-(3-Chlorophenyl)-1H-1,2,3-triazol-4-yl)methyl)-5-phenyl-1-oxa-5-azaspiro[5.5]undeca-7,10-diene-4,9-dione], the “% Enzyme Activity (relative to DMSO controls)” value (TRKC (L686M)) is reported as 106.77%, the remaining activity at 30 µM (TRKC (L686M); [3]) is reported as 107% and the “% Enzyme Activity (relative to DMSO controls)” value (JNK2; [4]) is reported as 79.67%. For the same compound, the remaining activity at 30 µM (JNK2; [5]) was 80.3%, the remaining activity at 30 µM (JNK2; [6]) was 80 ± 0.4% and the remaining activity at 30 µM (AMPK(A1/B1/G2)) was 68%. For the same compound, the “COX-2 expression level” value (COX-2) was “the regulation of COX-2 showed concentration dependency”, the “% Enzyme Activity (relative to DMSO controls)” value (MST3/STK24; [4]) was 89.43% and the remaining activity at 30 µM (MST3/STK24; [5]) was 94.2%. The remaining activity at 30 µM (MST3/STK24; [6]) was 91.8 ± 3.4%, the viability at 24 h, 1 µM (MTT cell viability assay; 1 μM compound) was 112 ± 19.8% and the viability at 24 h, 5 µM (MTT cell viability assay; 5 μM compound, % of LPS) was 90 ± 6%. For the same compound, the remaining activity at 30 µM (AMPK(A1/B2/G1) [1]) was 110%, the “% Enzyme Activity (relative to DMSO controls)” value (AMPK(A1/B2/G1) [2]) was 107.43% and the “% Enzyme Activity (relative to DMSO controls)” value (RIPK5; [4]) was 83.85%. The remaining activity at 30 µM (RIPK5; [5]) was 86.1%, the remaining activity at 30 µM (RIPK5; [6]) was 85 ± 1.6% and the “% Enzyme Activity (relative to DMSO controls)” value (TRKA (G595R)) was 99.08%. For the same compound, the remaining activity at 30 µM (TRKA (G595R); [3]) was 103%, the “% Enzyme Activity (relative to DMSO controls)” value (ROCK1; [4]) was 101.05% and the remaining activity at 30 µM (ROCK1; [5]) was 105%. For the same compound, the remaining activity at 30 µM (ROCK1; [6]) was 103 ± 3.1%.

From publication PMC7719162, “Positioning of an unprecedented spiro[5.5]undeca ring system into kinase inhibitor space” (Scientific Reports, 2020)
